We go through 15 molecules from ChEMBL document CHEMBL1156849, “Synthesis, immunosuppressive activity and structure-activity relationship study of a new series of 4-N-piperazinyl-thieno[2,3-d]pyrimidine analogues” (Bioorg Med Chem Lett, 2010).

Structures are written as SMILES. Bounds are passed on as bounds.

The subject of the test is Lymphocyte. Nature of the test: Immunosuppressive activity in lymphocytes by mixed lymphocyte reaction assay. It counts as functional, cell-based.
The term IC50 denotes the point on the concentration scale where inhibition reaches its midpoint. Turning to `Nc1nc(N2CCN(C(=O)CCc3ccccc3)CC2)c2cc(-c3ccc(F)cc3)sc2n1`, the IC50 was determined as 6990 nM. `Nc1nc(N2CCN(C(=O)COc3ccc(F)cc3)CC2)c2ccsc2n1`: inhibition was half-maximal at 66 nM (IC50).

Regarding `Nc1nc(N2CCN(C(=O)COc3ccc(Br)cc3)CC2)c2ccsc2n1`, the IC50 turned out to be 320 nM. With `Cc1cccc(NC(=O)N2CCN(c3nc(N)nc4sccc34)CC2)c1` the figure was 930 nM; with `Nc1nc(N2CCN(C(=O)Nc3ccc(Cl)cc3)CC2)c2ccsc2n1`, 6700 nM; with `CC(C)N(C(=O)N1CCN(c2nc(N)nc3sc(-c4ccc(F)cc4)cc23)CC1)C(C)C`, 8200 nM. For the molecule `CN(C(=O)CN1CCN(c2nc(N)nc3sccc23)CC1)c1ccccc1`, half-maximal inhibition (IC50) was put at 8120 nM. With `Nc1nc(N2CCN(C(=O)C3CCCCC3)CC2)c2cc(-c3ccc(F)cc3)sc2n1` the figure was greater than 10000 nM.

The molecule `Nc1nc(N2CCN(C(=O)COc3ccc(Cl)cc3)CC2)c2ccsc2n1` returned a concentration for half-maximal inhibition (IC50) of 330 nM.

`Nc1nc(N2CCN(C(=O)COc3ccccc3)CC2)c2ccsc2n1` displayed an IC50 of 780 nM. With `Cc1cccc(OCC(=O)N2CCN(c3nc(N)nc4sccc34)CC2)c1` the figure was 210 nM; with `COc1ccc(OCC(=O)N2CCN(c3nc(N)nc4sccc34)CC2)cc1`, 72 nM. `Nc1nc(N2CCN(C(=O)c3cccnc3)CC2)c2cc(-c3ccc(F)cc3)sc2n1` showed an IC50 greater than 10000 nM.

As for `Nc1nc(N2CCN(CCOc3ccccc3)CC2)c2ccsc2n1`, half-maximal inhibition (IC50) required 9640 nM. In turn, `C/C=C/C[C@@H](C)[C@@H](O)[C@H]1C(=O)N[C@@H](CC)C(=O)N(C)CC(=O)N(C)[C@@H](CC(C)C)C(=O)N[C@@H](C(C)C)C(=O)N(C)[C@@H](CC(C)C)C(=O)N[C@@H](C)C(=O)N[C@H](C)C(=O)N(C)[C@@H](CC(C)C)C(=O)N(C)[C@@H](CC(C)C)C(=O)N(C)[C@@H](C(C)C)C(=O)N1C` [CYCLOSPORINE] had an IC50 of 54 nM. This IC50 is about 180-fold lower than that of the molecule before.
